Measured values from PubChem BioAssay (NCI).
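Grown in 96-well plates, cells were treated for 48 hours with each compound at five concentrations. Insufficient inhibition: endpoint recorded as highest concentration tested. GI50 = concentration required for 50% inhibition of growth. TGI: concentration producing complete growth inhibition.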

What was measured:
Assay in all cases: NCI-60 cell line screen, 48 h
[1] = system: 786-0 renal
[2] = system: HCT-15 colon
[3] = system: BT-549 breast
[4] = system: PC-3 prostate
[5] = system: A549 NSCLC
[6] = system: OVCAR-8 ovarian
[7] = system: IGROV1 ovarian
[8] = system: DU-145 prostate
[9] = system: UO-31 renal
[10] = system: NCI-H23 lung
[11] = system: SF-539 CNS
[12] = system: ACHN renal
[13] = system: MCF7 breast
[14] = system: CAKI-1 renal
[15] = system: RXF 393 renal
[16] = system: SW-620 colon
[17] = system: HCC-2998 colon
[18] = system: MALME-3M melanoma
[19] = system: SF-268 CNS
[20] = system: HOP-92 NSCLC
[21] = system: NCI-H460 lung
[22] = system: LOX IMVI melanoma
[23] = system: HT29 colon
[24] = system: HOP-62 NSCLC
[25] = system: SK-MEL-2 melanoma
[26] = system: HCT-116 colon
[27] = system: RPMI-8226 leukemia
[28] = system: M14 melanoma
[29] = system: TK-10 renal
[30] = system: MDA-MB-231 breast
[31] = system: HL-60(TB) leukemia
[32] = system: OVCAR-5 ovarian
[33] = system: MOLT-4 leukemia
[34] = system: SR leukemia
[35] = system: OVCAR-3 ovarian
[36] = system: KM12 colon
[37] = system: EKVX NSCLC
[38] = system: SK-MEL-5 melanoma
[39] = system: SNB-75 CNS
[40] = system: MDA-MB-435
[41] = system: A498 renal
[42] = system: COLO 205 colon
[43] = system: SK-MEL-28 melanoma
[44] = system: CCRF-CEM leukemia
[45] = system: K-562 leukemia
[46] = system: UACC-62 melanoma
[47] = system: OVCAR-4 ovarian
[48] = system: SN12C renal
[49] = system: UACC-257 melanoma
[50] = system: T-47D breast
[51] = system: U251 CNS
[52] = system: HS 578T breast
[53] = system: NCI-H226 lung
[54] = system: SNB-19 CNS
[55] = system: NCI/ADR-RES ovarian
[56] = system: SF-295 CNS
[57] = system: NCI-H522 lung
[58] = system: SK-OV-3 ovarian

For `NC(=O)c1ccc2c(-c3ccnc(NCCCO)n3)c(-c3ccc(F)cc3)nn2c1`, the GI50 [1] was > 25 µM, the TGI [1] was > 25 µM and the GI50 [2] was > 25 µM. For the same compound, the TGI [2] was > 25 µM, the GI50 [3] was > 25 µM and the TGI [3] was > 25 µM. The GI50 [4] was > 25 µM, the TGI [4] was > 25 µM and the GI50 [5] was > 23 µM. The TGI [5] was > 25 µM, the GI50 [6] was > 25 µM and the TGI [6] was > 25 µM. The GI50 [7] was 12.9 µM, the TGI [7] was > 25 µM and the GI50 [8] was > 22.8 µM. For the same compound, the TGI [8] was > 25 µM, the GI50 [9] was 5.9 µM and the TGI [9] was > 25 µM. For the same compound, the GI50 [10] was > 25 µM, the TGI [10] was > 25 µM and the GI50 [11] was > 25 µM. The TGI [11] was > 25 µM, the GI50 [12] was > 17.1 µM and the TGI [12] was > 25 µM. The GI50 [13] was > 16.9 µM, the TGI [13] was > 25 µM and the GI50 [14] was > 25 µM. The TGI [14] was > 25 µM, the GI50 [15] was 21.4 µM and the TGI [15] was > 25 µM. For the same compound, the GI50 [16] was > 25 µM, the TGI [16] was > 25 µM and the GI50 [17] was > 25 µM. For the same compound, the TGI [17] was > 25 µM, the GI50 [18] was > 25 µM and the TGI [18] was > 25 µM. For the same compound, the GI50 [19] was > 22.2 µM, the TGI [19] was > 25 µM and the GI50 [20] was > 25 µM. The TGI [20] was > 25 µM, the GI50 [21] was > 25 µM and the TGI [21] was > 25 µM. For the same compound, the GI50 [22] was > 25 µM, the TGI [22] was > 25 µM and the GI50 [23] was > 21.2 µM. For the same compound, the TGI [23] was > 25 µM, the GI50 [24] was > 25 µM and the TGI [24] was > 25 µM. The GI50 [25] was > 25 µM, the TGI [25] was > 25 µM and the GI50 [26] was > 25 µM. For the same compound, the TGI [26] was > 25 µM, the GI50 [27] was > 25 µM and the TGI [27] was > 25 µM. For the same compound, the GI50 [28] was > 25 µM, the TGI [28] was > 25 µM and the GI50 [29] was > 18.6 µM. The TGI [29] was > 25 µM, the GI50 [30] was > 25 µM and the TGI [30] was > 25 µM. For the same compound, the GI50 [31] was > 21.9 µM, the TGI [31] was > 25 µM and the GI50 [32] was > 25 µM. The TGI [32] was > 25 µM, the GI50 [33] was > 25 µM and the TGI [33] was > 25 µM. The GI50 [34] was > 25 µM, the TGI [34] was > 25 µM and the GI50 [35] was 18.6 µM. The TGI [35] was > 25 µM, the GI50 [36] was > 25 µM and the TGI [36] was > 25 µM. The GI50 [37] was > 25 µM, the TGI [37] was > 25 µM and the GI50 [38] was > 25 µM. The TGI [38] was > 25 µM, the GI50 [39] was > 10 µM and the TGI [39] was > 25 µM. For the same compound, the GI50 [40] was > 18.3 µM, the TGI [40] was > 25 µM and the GI50 [41] was 7.24 µM. The TGI [41] was > 25 µM, the GI50 [42] was > 20.6 µM and the TGI [42] was > 25 µM. For the same compound, the GI50 [43] was > 25 µM, the TGI [43] was > 25 µM and the GI50 [44] was > 25 µM. For the same compound, the TGI [44] was > 25 µM, the GI50 [45] was > 25 µM and the TGI [45] was > 25 µM. The GI50 [46] was > 25 µM, the TGI [46] was > 25 µM and the GI50 [47] was > 25 µM. The TGI [47] was > 25 µM, the GI50 [48] was > 25 µM and the TGI [48] was > 25 µM. The GI50 [49] was > 25 µM, the TGI [49] was > 25 µM and the GI50 [50] was > 25 µM. For the same compound, the TGI [50] was > 25 µM, the GI50 [51] was > 25 µM and the TGI [51] was > 25 µM. For the same compound, the GI50 [52] was > 25 µM, the TGI [52] was > 25 µM and the GI50 [53] was > 25 µM. The TGI [53] was > 25 µM, the GI50 [54] was > 25 µM and the TGI [54] was > 25 µM. The GI50 [55] was > 25 µM, the TGI [55] was > 25 µM and the GI50 [56] was > 25 µM. For the same compound, the TGI [56] was > 25 µM, the GI50 [57] was > 25 µM and the TGI [57] was > 25 µM. For the same compound, the GI50 [58] was > 24.2 µM and the TGI [58] was > 25 µM.

Work on `C=C[C@H]1CCC/C=C/[C@@H]2C[C@H](O)C[C@H]2[C@H](O)/C=C/C(=O)O1` yielded a GI50 [1] of 0.0184 µM, a TGI [1] of 0.0377 µM and a GI50 [2] of 0.0325 µM. The TGI [2] was > 34.7 µM, the GI50 [3] was 0.05 µM and the TGI [3] was > 100 µM. The GI50 [4] was 0.0458 µM, the TGI [4] was > 100 µM and the GI50 [5] was 0.0415 µM. For the same compound, the TGI [5] was > 100 µM, the GI50 [6] was 0.0374 µM and the TGI [6] was > 100 µM. For the same compound, the GI50 [7] was 0.0655 µM, the TGI [7] was > 100 µM and the GI50 [8] was 0.0771 µM. For the same compound, the TGI [8] was > 100 µM, the GI50 [9] was 0.0341 µM and the TGI [9] was > 100 µM. It also gave a GI50 [10] of 0.0393 µM, a TGI [10] of 6 µM and a GI50 [11] of 0.0531 µM. For the same compound, the TGI [11] was > 100 µM, the GI50 [12] was 0.0404 µM and the TGI [12] was > 100 µM. For the same compound, the GI50 [13] was 0.021 µM, the TGI [13] was 0.0532 µM and the GI50 [14] was 0.035 µM. The TGI [14] was > 100 µM, the GI50 [15] was < 0.0137 µM and the TGI [15] was < 0.0193 µM. It also gave a GI50 [16] of 0.0275 µM, a TGI [16] of 0.0949 µM and a GI50 [17] of 0.0316 µM. For the same compound, the GI50 [18] was 0.034 µM, the TGI [18] was 1.89 µM and the GI50 [19] was 0.038 µM. The TGI [19] was > 100 µM, the GI50 [20] was 0.0289 µM and the TGI [20] was 2.99 µM. For the same compound, the GI50 [21] was 0.0422 µM, the TGI [21] was > 100 µM and the GI50 [22] was 0.0222 µM. It also gave a TGI [22] of 0.0528 µM, a GI50 [23] of 0.0244 µM and a TGI [23] of 0.0632 µM. It also gave a GI50 [24] of 0.0488 µM, a GI50 [25] of 0.0303 µM and a TGI [25] of 0.0944 µM. For the same compound, the GI50 [26] was 0.0238 µM, the TGI [26] was 0.0576 µM and the GI50 [27] was 0.045 µM. The TGI [27] was > 100 µM, the GI50 [28] was 0.0353 µM and the TGI [28] was > 100 µM. For the same compound, the GI50 [29] was 0.0393 µM, the TGI [29] was 0.5 µM and the GI50 [30] was 0.0201 µM. It also gave a TGI [30] of 0.0403 µM, a GI50 [31] of 0.0347 µM and a TGI [31] of 0.234 µM. The GI50 [32] was 0.0504 µM, the TGI [32] was > 100 µM and the GI50 [33] was 0.0387 µM. For the same compound, the TGI [33] was > 100 µM, the GI50 [34] was 0.0319 µM and the GI50 [35] was 0.0242 µM. For the same compound, the TGI [35] was 0.0576 µM, the GI50 [36] was 0.022 µM and the TGI [36] was 0.0507 µM. The GI50 [37] was 0.0395 µM, the TGI [37] was > 100 µM and the GI50 [38] was < 0.0129 µM. For the same compound, the TGI [38] was 0.0238 µM, the GI50 [39] was < 0.01 µM and the TGI [39] was > 100 µM. For the same compound, the GI50 [40] was 0.043 µM, the TGI [40] was > 100 µM and the GI50 [41] was 0.015 µM. The TGI [41] was 0.0528 µM, the GI50 [42] was 0.0194 µM and the TGI [42] was 0.0365 µM. For the same compound, the GI50 [43] was 0.0213 µM, the TGI [43] was 0.404 µM and the GI50 [44] was 0.0418 µM. For the same compound, the TGI [44] was > 100 µM, the GI50 [45] was 0.0478 µM and the TGI [45] was > 100 µM. For the same compound, the GI50 [46] was 0.0344 µM, the TGI [46] was > 100 µM and the GI50 [47] was 0.0303 µM. The TGI [47] was > 100 µM, the GI50 [48] was 0.0374 µM and the TGI [48] was > 100 µM. For the same compound, the GI50 [49] was 0.0864 µM, the TGI [49] was > 100 µM and the GI50 [50] was 0.0285 µM. The TGI [50] was 0.0973 µM, the GI50 [51] was 0.0428 µM and the TGI [51] was > 100 µM. The GI50 [52] was < 0.01 µM, the TGI [52] was > 100 µM and the GI50 [53] was < 0.0125 µM. The TGI [53] was 0.0289 µM, the GI50 [54] was 0.0542 µM and the TGI [54] was > 100 µM. For the same compound, the GI50 [55] was 0.0361 µM, the TGI [55] was > 100 µM and the GI50 [56] was 0.0537 µM. For the same compound, the TGI [56] was > 100 µM, the GI50 [57] was 0.0673 µM and the TGI [57] was 0.356 µM. For the same compound, the GI50 [58] was 0.0406 µM and the TGI [58] was > 93.5 µM.
